The values below come from patent US20240076272A1, “Activators of Heme Regulated Inhibitor Kinase (HRI)” (The Brigham and Women`s Hospital, Inc., priority 2019, published 2024).

Some results are limits rather than exact numbers.

Data set [1] concerns eIF2α phosphorylation (ATF-4 5′UTR luciferase reporter). Briefly: surrogate eIF2α phosphorylation dual-luciferase reporter (DLR) assay. In kind it is cell-based. The conditions noted are these: F/R luciferase ratio normalized to DMSO wells (F/R=1); for fold induction at 1.25 µM: read-out: Fold stimulation of ATF-4 Surrogate eIF2α @ 1.25 μM; for fold induction at 5 µM: read-out: Fold stimulation of ATF-4 Surrogate eIF2α @ 5 μM. The source says: The dual luciferase expression vector and other plasmids used in the Examples provided herein have been previously reported (see e.g., Ziegeler et al, J. Biol. Chem. 285 (2010) 15408-15419). The dual luciferase surrogate eIF2α phosphorylation assay, has also been previously reported (see e.g., Chen et al, Nat. Chem. Biol. 7 (2011) 610-616). Briefly, a dual Renilla and Firefly luciferase mammalian reporter vector that transcribes both mRNAs from the same bi-directional enhancer/promoter complex was utilized for generation of surrogate eIF2α phosphorylation assay (see e.g., Ziegeler et al, J. Biol. Chem. 285 (2010) 15408-15419). Both mRNAs contained the same 90 nucleotide plasmid derived 5′UTR. In addition, 5′UTR of the Firefly luciferase open reading frame was fused in-frame to the 267 nucleotide ATF-4 5′UTR (see e.g., Chen et al, Nat. Chem. Biol. 7 (2011) 610-616).
Cells expressing firefly and renilla luciferases were assayed with a dual glow luciferase assay kit, per manufacturer's instruction (Promega Inc., Madison, WI). The data calculations were carried out as the ratio of firefly to renilla luciferase signal (see e.g., Ziegeler et al, J. Biol. Chem. 285 (2010) 15408-15419). Dose-response curves were obtained, and triplicate data points were fitted to the logistical sigmoidal model using nonlinear least-squares regression performed in GraphPad Prism 6.
All newly synthesized N,N′-disubstituted ureas were initially evaluated by testing in the surrogate eIF2α phosphorylation dual-luciferase reporter (DLR) assay (see e.g., Chen et al, Nat. Chem. Biol. 7 (2011) 610-616; and Ziegeler et al, J. Biol. Chem. 285 (2010) 15408-15419). Briefly, this assay takes advantage of the fact that activated HRI phosphorylates eIF2α which inhibits eIF2 guanine nucleotide exchange factor eIF2B, responsible for exchanging the GDP in the eIF2·GDP complex for GTP. The reduction in the recycling of eIF2·GDP into eIF2·GTP interferes with the formation of eIF2·GTP·Met-tRNAi ternary complex. […] These include mRNA coding for activating transcription factor 4 (ATF-4) (see e.g., Aktas et al, Oncotarget, 4 (2013) 1606-1617; Aktas et al, Oncotarget, 6 (2015) 6902-6914; and Aktas et al, Proc. Natl. Acad. Sci. U.S.A. 95 (1998) 8280-8285).
In the present assay, firefly (F) luciferase mRNA was fused to the 5′UTR of ATF-4 mRNA that had multiple uORFs, while renilla (R) luciferase mRNA was fused to a 5′UTR lacking any uORFs. Agents that reduce the amount of the eIF2·GTP·Met-tRNAi ternary complex, such as N,N′-disubstituted ureas that activate HRI, increase F luciferase expression while reducing the R luciferase expression, resulting in an increased F/R luciferase ratio. The ureas of the present application were tested at 10 μM, 5 μM, 2.5 μM, and 1.25 μM concentrations in 96-well assay plates (see e.g., Chen et al, Nat. Chem. Biol. 7 (2011) 610-616; and Bai et al, ChemBioChem, 14 (2013) 1255-1262). The activity scores as the F/R ratios were calculated for every compound-treated well and normalized to F/R ratio of vehicle-treated (DMSO) wells in the same plate, arbitrarily set at 1 (F/R=1). Data obtained in the surrogate dual-luciferase eIF2α phosphorylation (DLR) assay for the series of 1-phenyl-3/4-(4-trifluorometyl) phenoxy-cycloalkyl)ureas (4-CF3-ΦcAlkΦUs) and 1-phenyl-3-(5-(4-(trifluoromethyl) phenoxy)pyrimidin-2-yl)ureas (4-CF3-ΦOPyΦUs) described herein are shown in Tables 1-2.
For orientation: A reporter such as luciferase makes a cellular process visible.

Data set [2] deals with human melanoma CRL-2813 cells. Briefly: sulforhodamine B (SRB) cell proliferation assay. It is filed as cell-based. The following applies: Homo sapiens, CRL2813, 120 h, 5 days, read-out: IC50 (concentration that inhibits growth of human melanoma CRL-2813 cells by 50%). On the procedure: Cells were seeded in 96-well plates and maintained for 5 days in the presence of 0.5 μM to 20 μM of individual compound, and cell proliferation was measured by the sulforhodamine B (SRB) assay according to previous reports (see e.g., Palakurthi et al, Cancer Res. 60 (2000) 2919-2925): briefly, at the end of a 5-day treatment, cells were fixed in 10% cold trichloroacetic acid. Cell number was estimated by measuring the remaining bound dye of sulforhodamine B after washing. The percentage of growth was calculated by using the equation: 100×[(T-T0)/(C-T0)], where T and C represent the absorbance in treated and control cultures at Day 5, and T0 at time zero, respectively. If T was less than T0, cell death had occurred and was calculated from 100×[(T-T0)/T0].
All 4-CF3-ΦOcAlkΦUs were tested in the sulforhodamine B (SRB) cell proliferation assay to establish the concentrations that inhibit human melanoma CRL-2813 cells growth by 50% (IC50) (see Table 1). This activity reflects a combined effect of membrane permeability and overall anti-proliferative effects that include on target and off-target effects.

By melting point is commonly meant the temperature, or range, at which the solid turns liquid. `N#Cc1cc(NC(=O)N[C@H]2C[C@@H](Oc3ccc(C(F)(F)F)cc3)C2)cc(C(F)(F)F)c1` [Compound 1-IVc, 1-(3-Cyano-5-(trifluoromethyl)phenyl)-3-(cis-3-(4-(trifluoromethyl)phenoxy)cyclobutyl)urea] displayed a melting point of 194.6 to 196.1 °C. For the same compound, in data set [1], the “Fold stimulation of ATF-4 Surrogate eIF2α @ 1.25 μM” value is 4.3 ± 0.6 fold and the fold induction at 1.25 µM was determined as 4.3. Moreover, the fold induction at 5 µM in data set [1] (5 μM) came out at 8.4 ± 0.5. Further, the IC50 in data set [2] stood at 900 nM.
Turning to `N#Cc1cc(NC(=O)N[C@H]2CC[C@H](Oc3ccc(C(F)(F)F)cc3)C2)cc(C(F)(F)F)c1` [Compound 1-V, 1-(3-Cyano-5-(trifluoromethyl)phenyl)-3-((1S,3S)-3-(4-(trifluoromethyl)phenoxy)cyclopentyl)urea], the melting point was 144.4 to 146.2 °C. Moreover, in data set [1], the “Fold stimulation of ATF-4 Surrogate eIF2α @ 1.25 μM” value came to 3.1 ± 0.7 fold and the fold induction at 1.25 µM is 3.1. Besides, in data set [1] (5 μM), the “Fold stimulation of ATF-4 Surrogate eIF2α @ 5 μM” value is 8.3 ± 2.4 fold and the fold induction at 5 µM turned out to be 8.3. Further, the IC50 in data set [2] worked out at 1200 nM.
In turn, `N#Cc1cc(NC(=O)Nc2ncc(Oc3ccc(C(F)(F)F)cc3)cn2)cc(C(F)(F)F)c1` [Compound 1-py, 1-(3-Cyano-5-(trifluoromethyl)phenyl)-3-(5-(4-(trifluoromethyl)phenoxy)pyrimidin-2-yl)urea] registered a melting point of 263.5 to 265.5 °C.
For `O=C(Nc1cccc(C(F)(F)F)c1)N[C@H]1C[C@H](Oc2ccc(C(F)(F)F)cc2)C1` [Compound 2-IV, 1-(trans-3-(4-(Trifluoromethyl)phenoxy)cyclobutyl)-3-(3-(trifluoromethyl)phenyl)urea], the melting point lay in the range of 171.8 to 174.6 °C. Besides, the fold induction at 1.25 µM in data set [1] was found to be 2.4 ± 0.6. In data set [1] (5 μM), the fold induction at 5 µM stood at 6.5 ± 1.2. The IC50 in data set [2] was found to be 3400 ± 1000 nM.
The corresponding values for `O=C(Nc1cccc(C(F)(F)F)c1)N[C@H]1C[C@@H](Oc2ccc(C(F)(F)F)cc2)C1` [Compound 2-IVc, 1-(cis-3-(4-(Trifluoromethyl)phenoxy)cyclobutyl)-3-(3-(trifluoromethyl)phenyl)urea] are 166.6 to 168.5 °C, 1.2 ± 0.3, 6.2 ± 1.2 and 2600 ± 400 nM.
The like results for `O=C(Nc1cccc(C(F)(F)F)c1)N[C@H]1CC[C@H](Oc2ccc(C(F)(F)F)cc2)C1` [Compound 2-V] were, in that order, 123.5 to 125.3 °C, 1.2 ± 0.4, 7 ± 0.9 and 2500 ± 500 nM.
On to `O=C(Nc1cccc(C(F)(F)F)c1)Nc1ncc(Oc2ccc(C(F)(F)F)cc2)cn1` [Compound 2-py, 1-(5-(4-(Trifluoromethyl)phenoxy)pyrimidin-2-yl)-3-(3-(trifluoromethyl)phenyl)urea], for which the melting point was in the range of 232.5 to 234.8 °C.
In turn, `N#Cc1cccc(NC(=O)N[C@H]2C[C@H](Oc3ccc(C(F)(F)F)cc3)C2)c1` [Compound 3-IV, 1-(3-Cyanophenyl)-3-(trans-3-(4-(trifluoromethyl)phenoxy)cyclobutyl)urea] came in with a melting point of 181.1 to 182.3 °C. In data set [1], the “Fold stimulation of ATF-4 Surrogate eIF2α @ 1.25 μM” value stood at 1.6 ± 0.2 fold and the fold induction at 1.25 µM was found to be 1.6. In addition, in data set [1] (5 μM), the fold induction at 5 µM was 3.5 ± 0.4. The IC50 in data set [2] amounted to 4900 nM.
The like results for `N#Cc1cccc(NC(=O)N[C@H]2C[C@@H](Oc3ccc(C(F)(F)F)cc3)C2)c1` [Compound 3-IVc, 1-(3-Cyanophenyl)-3-(cis-3-(4-(trifluoromethyl)phenoxy)cyclobutyl)urea] were, in that order, 203.7 to 206.8 °C, 1.1 ± 0.2 fold, 1.1, 0.9 ± 0.1 and over 10000 nM.
Consider `N#Cc1cccc(NC(=O)N[C@H]2CC[C@H](Oc3ccc(C(F)(F)F)cc3)C2)c1` [Compound 3-V], for which the melting point was in the range of 160.2 to 162.1 °C. For the same compound, the fold induction at 1.25 µM in data set [1] turned out to be 0.8 ± 0.2. Besides, the fold induction at 5 µM in data set [1] (5 μM) was 1.6 ± 0.2. In addition, the IC50 in data set [2] worked out at 6500 ± 2300 nM.
`N#Cc1cccc(NC(=O)Nc2ncc(Oc3ccc(C(F)(F)F)cc3)cn2)c1` [Compound 3-py, 1-(3-Cyanophenyl)-3-(5-(4-(trifluoromethyl)phenoxy)pyrimidin-2-yl) urea]: the melting point fell in the range of 260.2 to 261.5 °C.
As for `N#Cc1cc(F)cc(NC(=O)N[C@H]2C[C@H](Oc3ccc(C(F)(F)F)cc3)C2)c1` [Compound 4-IV, 1-(3-Cyano-5-fluorophenyl)-3-(trans-3-(4-(trifluoromethyl)phenoxy)cyclobutyl)urea], the melting point lay within 182.8 to 185 °C. Besides, the fold induction at 1.25 µM in data set [1] worked out at 2 ± 0.4. Further, the fold induction at 5 µM in data set [1] (5 μM) amounted to 5.3 ± 0.6. Also, the IC50 in data set [2] turned out to be 2800 ± 1300 nM.
The corresponding values for `N#Cc1cc(F)cc(NC(=O)N[C@H]2CC[C@H](Oc3ccc(C(F)(F)F)cc3)C2)c1` [Compound 4-V] are 176.2 to 177.8 °C, 2.4 ± 0.3, 8 ± 2 and 1900 ± 1300 nM.
`N#Cc1cc(F)cc(NC(=O)Nc2ncc(Oc3ccc(C(F)(F)F)cc3)cn2)c1` [Compound 4-py, 1-(3-Cyano-5-fluorophenyl)-3-(5-(4-(trifluoromethyl)phenoxy)pyrimidin-2-yl)urea] yielded a melting point of 267.5 to 270 °C.
For the compound `Cc1ccc(F)cc1NC(=O)N[C@H]1C[C@H](Oc2ccc(C(F)(F)F)cc2)C1` [Compound 7-IV, 1-(5-Fluoro-2-methylphenyl)-3-(trans-3-(4-(trifluoromethyl)phenoxy)cyclobutyl)urea], the melting point lay within 204.2 to 206 °C. The fold induction at 1.25 µM in data set [1] was found to be 0.7 ± 0.2. Further, the fold induction at 5 µM in data set [1] (5 μM) came to 1.4 ± 0.1. Besides, the IC50 in data set [2] was over 10000 nM.
As for `Cc1ccc(F)cc1NC(=O)Nc1ncc(Oc2ccc(C(F)(F)F)cc2)cn1` [Compound 7-py, 1-(5-Fluoro-2-methylphenyl)-3-(5-(4-(trifluoromethyl)phenoxy)pyrimidin-2-yl)urea], the melting point fell in the range of 224.2 to 226.5 °C.
Regarding `O=C(Nc1ccc(F)c(F)c1)Nc1ncc(Oc2ccc(C(F)(F)F)cc2)cn1` [Compound 10-py, 1-(3,4-Difluorophenyl)-3-(5-(4-(trifluoromethyl)phenoxy)pyrimidin-2-yl) urea], the melting point fell in the range of 224.8 to 226.2 °C.
